Where a SMILES comes first, the peptide text is derived from it. Where no end group is shown, it is not given here. [ ]: non-standard residue; d: D form. The star is where a group is joined. Sta = CC(C)C[C@H](N)[C@@H](O)CC(=O)O; Isovaleryl = CC(C)CC(=O)*

In the first assay the target is T1, Endothelin-Converting Enzyme (Sus scrofa, UniProt A0A8W4FBH0).
T1 construct: 1.0% Triton X-100 was added to solubilize enzyme activity; from tissue; host or cells: pig lung, solubilised 100,000×G membrane fraction
T1 sequence (A0A8W4FBH0 1-751): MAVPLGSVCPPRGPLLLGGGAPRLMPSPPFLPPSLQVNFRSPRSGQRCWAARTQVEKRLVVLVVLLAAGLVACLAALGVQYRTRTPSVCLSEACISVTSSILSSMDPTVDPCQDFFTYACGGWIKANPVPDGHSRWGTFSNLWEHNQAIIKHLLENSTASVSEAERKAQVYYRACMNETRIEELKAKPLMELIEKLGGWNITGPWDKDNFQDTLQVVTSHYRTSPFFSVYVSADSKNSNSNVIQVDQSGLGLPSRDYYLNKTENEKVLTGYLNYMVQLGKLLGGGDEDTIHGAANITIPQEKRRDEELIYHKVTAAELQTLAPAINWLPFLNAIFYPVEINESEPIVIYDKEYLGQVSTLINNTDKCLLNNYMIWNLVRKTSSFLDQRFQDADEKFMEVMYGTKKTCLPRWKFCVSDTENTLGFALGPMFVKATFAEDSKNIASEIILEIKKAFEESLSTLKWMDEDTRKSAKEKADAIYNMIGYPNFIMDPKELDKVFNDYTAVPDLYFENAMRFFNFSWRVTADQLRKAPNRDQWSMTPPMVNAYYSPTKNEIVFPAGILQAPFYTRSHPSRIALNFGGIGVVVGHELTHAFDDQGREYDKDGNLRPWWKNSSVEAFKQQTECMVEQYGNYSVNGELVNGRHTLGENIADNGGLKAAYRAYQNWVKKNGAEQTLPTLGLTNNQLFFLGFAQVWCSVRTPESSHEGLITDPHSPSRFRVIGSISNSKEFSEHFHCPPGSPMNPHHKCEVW
Briefly: Measurement of endothelin-converting enzyme inhibiting activity of phosphonic acid derivatives (pig big endothelin I (1-39) substrate, endothelin I sandwich enzyme immunoassay). It counts as biochemical. The note with it: 37° C., 1 hour, pH 7.2, pig lung solubilized membrane fraction. The method, then:
Measurement of Endothelin-Converting Enzyme Inhibiting Activity of Phosphonic Acid Amide Derivatives
In 1.5-ml centrifugal tube (BIO-BIK), 80 μl of 50 mM bis-Trispropane-hydrochloric acid buffer (pH 7.2) supplemented with 1.0 mg/ml bovine serum albumin, 0.1M sodium chloride, 1.0 mM phenylmethanesulfonyl fluoride (PMSF, Wako Pure Cnemical Industries), 1.0 μg/ml leupeptin (Peptide Institute Inc.), 1.0 μg/ml chymostatin (Peptide Institute Inc.), 1.0 μg/ml pepstatin A (Peptide Institute Inc.), 1.0 μM E-64 (Peptide Institute Inc.), 1.0 μm thiorphan (Sigma) and 1.0 μM angiotensin-converting enzyme inhibitor [CV-5975, Inada et al., Japanese Journal of Pharmacology, 47, 135-141 (1988)], 5 μl of a sample solution to be tested (an aqueous solution or an aqueous solution containing 2% dimethyl sulfoxide) or 5 μl of distilled water for the control plot, and 10 μl of an endothelin-converting enzyme sample prepared as described in the following reference example were placed. After standing at 37° C. for 30 minutes, 5 μl of a substrate solution [physiological phosphate buffer (PBS, containing 0.2 g of potassium chloride, 0.2 g of potassium dihydrogenphosphate, 8.0 g of sodium chloride and 1.14 g of disodium hydrogenphosphate in 1,000 ml of distilled water) supplemented with 1.0×10^-6 M pig big endothelin I (1-39) (Peptide Institute Inc.) and 1.0 mg/ml bovine serum albumin] was added thereto to initiate enzyme reaction. After reaction at 37° C. for 1 hour, the reaction mixture was boiled in boiling water for 5 minutes, thereby terminating the reaction: The resulting insoluble material was removed by centrifugation, and endothelin I (1-21) produced by the enzyme reaction contained in 10 μl of the supernatant was quantified by the endothelin I-specific sandwich enzyme immunoassay method already established [Suzuki et al., J. Immuno. Meth., 188, 245-250 (1989)], and compared with the amount of endothelin produced in the control plot to evaluate the enzyme inhibiting activity.
As endothelin-converting enzymes existing in organisms, two kinds of metalloenzymes different in enzymological properties are generally known. One exits in the cytoplasms, and the other is membrane-bound. The latter is characterized by that it is inhibited with phosphoramidon known as an inhibitor for metalloproteases [Matsumura et al., FEBS Lett., 272, 166-170 (1990)]. The endothelin-converting enzyme in the present invention means the membrane-bound enzyme of these two kinds of enzymes.
(§1) About 500 g of the pig lung (of one pig) was sliced and disrupted in 2.0 liter of PBS supplemented with 0.05% sodium azide, 1.0 mM dithiothreitol, 1.0 mM PMSF, 1.0 μg/ml leupeptin, 1.0 μg/ml chymostatin, 1.0 μg/ml pepstatin A and 1.0 μM E-64, and then homogenized (1 minute×5 times) by a Polytron mixer ([…]). The centrifuged supernatant (240×G, 5 minutes) was further centrifuged at 10,000×G for 15 minutes, and the resulting supernatant was subjected to ultracentrifuge (100,000×G, 90 minutes) to obtain membrane fraction as a precipitate. To this precipitate, 1.0% Triton X-100 was added to solubilize enzyme activity. […] This was diluted to 2.0 mg of protein/ml to use for assaying the activity of enzyme inhibitors.
With `CC(C)C[C@H](NP(=O)(O)Cc1cccc2ccccc12)C(=O)N[C@@H](Cc1c[nH]c2ccccc12)C(=O)O` [N-(1-Naphthylmethylphosphonyl)-Leu-Trp.2Na], the IC50 – broadly, the concentration at which inhibition is half-maximal – came out at 200 nM. In turn, `CC(C)C[C@H](NP(=O)(O)Cc1ccc2ccccc2c1)C(=O)N[C@@H](Cc1c[nH]c2ccccc12)C(=O)O` [N-(2-Naphthylmethylphosphonyl)-Leu-Trp.2Na] registered an IC50 of 1000 nM. On to `CC(C)CCP(=O)(O)N[C@@H](CC(C)C)C(=O)N[C@@H](Cc1c[nH]c2ccccc12)C(=O)O` [N-(Isoamylphosphonyl)-Leu--Trp.2Na, N-(Isoamylphosphonyl)-Leu-Trp.2Na], for which the IC50 came out at 700 nM.

Molecule `O=C(O)[C@H](Cc1c[nH]c2ccccc12)NC(=O)[C@H](CC1CCCCC1)NP(=O)(O)CCc1ccccc1` [N-(Phenethylphosphonyl)-Cha--Trp.2Na, N-(Phenethylphosphonyl)-Cha-Trp.2Na] yielded an IC50 of 1000 nM. `CC[C@H](C)[C@H](NP(=O)(O)CCc1ccccc1)C(=O)N[C@@H](Cc1c[nH]c2ccccc12)C(=O)O` [N-(Phenethylphosphonyl)-Ile--Trp.2Na, N-(Phenethylphosphonyl)-Ile-Trp.2Na] yielded an IC50 of 1200 nM. With `CC(C)C[C@H](NC(=O)[C@H](CC(C)C)NP(=O)(O)CCc1ccccc1)C(=O)O` [N-(Phenethylphosphonyl)-Leu--Leu.2Na, N-(Phenethylphosphonyl)-Leu-Leu.2Na], the IC50 is 4800 nM. As for `CC(C)C[C@H](NP(=O)(O)CCc1ccccc1)C(=O)N[C@@H](Cc1ccccc1)C(=O)O` [N-(Phenethylphosphonyl)-Leu--Phe.2Na, N-(Phenethylphosphonyl)-Leu-Phe.2Na], the IC50 came out at 5700 nM. `CC(C)C[C@H](NP(=O)(O)CCc1ccccc1)C(=O)N[C@@H](Cc1c[nH]c2ccccc12)C(=O)O` [N-(Phenethylphosphonyl)-Leu--Trp.2Na, N-(Phenethylphosphonyl)-Leu-Trp.2Na] gave a 50% inhibitory concentration (IC50) of 200 nM. For the molecule `CCCC[C@H](NP(=O)(O)CCc1ccccc1)C(=O)N[C@@H](Cc1c[nH]c2ccccc12)C(=O)O` [N-(Phenethylphosphonyl)-Nle--Trp.2Na, N-(Phenethylphosphonyl)-Nle-Trp.2Na], the IC50 came out at 1400 nM. With `O=C(O)[C@H](Cc1c[nH]c2ccccc12)NC(=O)[C@H](Cc1ccccc1)NP(=O)(O)CCc1ccccc1` [N-(Phenethylphosphonyl)-Phe--Trp.Na, N-(Phenethylphosphonyl)-Phe-Trp.2Na], half-maximal inhibition (IC50) required 500 nM. On the same count and under the same terms, with `CC(C)[C@H](NP(=O)(O)CCc1ccccc1)C(=O)N[C@@H](Cc1c[nH]c2ccccc12)C(=O)O` [N-(Phenethylphosphonyl)-Val--Trp.2Na, N-(Phenethylphosphonyl)-Val-Trp.2Na] the figure was 2800 nM; with `CC(C)C[C@H](NP(=O)(O)CCc1cccc2ccccc12)C(=O)N[C@@H](Cc1c[nH]c2ccccc12)C(=O)O` [N-[2-(1-Naphthyl)ethylphosphonyl]-Leu-Trp.2Na], 400 nM.

As for `CC(C)C[C@H](NP(=O)(O)CCc1ccc2ccccc2c1)C(=O)N[C@@H](Cc1c[nH]c2ccccc12)C(=O)O` [N-[2-(2-Naphthyl)ethylphosphonyl]-Leu-Trp.2Na], 100 nM corresponded to half-maximal inhibition (IC50).

In the next assay the test system is membrane-bound endothelin-converting enzyme.
Assay: not given
The settings on record: FEBS Lett., 272, 166-170 (1990); cited from earlier work.
As to `CC(C)C[C@H](NP(=O)(O)O[C@@H]1O[C@@H](C)[C@H](O)[C@@H](O)[C@H]1O)C(=O)N[C@@H](Cc1c[nH]c2ccccc12)C(=O)O` [Phosphoramidone], the “inhibition of membrane-bound enzyme (in words)” value is “inhibited”.

Another assay deals with T1, Endothelin-Converting Enzyme. The assay can be described thus: Kinetic coefficient (Lineweaver-Burk plot). It counts as biochemical. The note with it: substrate pig big endothelin, read-out: Michaelis coefficient. The method, then:
The Michaelis coefficient of this enzyme to pig big endothelin was calculated to be about 5×10^-6 M from the Lineweaver-Burk plot.
As for “pig big endothelin: substrate; pig big endothelin I (1-39) (Peptide Institute Inc.) (CSCSSLMDKECVYFCHLDIIWVNTPEHIVPYGLGSPSRS; ends and bridges not checked; cysteine pairing not given here; UniProt P09558 53-91, looked up, fragment)”, the Km is about 5 µM.

The next assay has the same target. Briefly: Inhibition effect of various protease inhibitors on endothelin-converting enzyme. The note with it: Concentration 100 μM; read-out: Inhibiting Ratio (%). It counts as biochemical, pig. The method, then: as §1
In the case of `CC(C)C[C@H](NC(=O)[C@@H](NC(=O)N[C@@H](Cc1ccccc1)C(=O)O)[C@@H]1CCN=C(N)N1)C(=O)N[C@H](C=O)Cc1ccccc1` [Chymostatin], the inhibition at 100 µM was 2%. `CC(C)C[C@H](NC(=O)[C@H]1O[C@@H]1C(=O)O)C(=O)NCCCCN=C(N)N` [Example E-64]: the inhibition at 100 µM is 9%. With `CC(=O)N[C@@H](CC(C)C)C(=O)N[C@@H](CC(C)C)C(=O)N[C@H](C=O)CCCNC(=N)N` [Leupeptin], the inhibition at 100 µM was 23%. For `CC(C)CC(=O)N[C@H](C(=O)N[C@H](C(=O)N[C@@H](CC(C)C)[C@@H](O)CC(=O)N[C@@H](C)C(=O)N[C@@H](CC(C)C)[C@@H](O)CC(=O)O)C(C)C)C(C)C` [Pepstatin] (Isovaleryl-VV[Sta]A[Sta]-OH), the inhibition at 100 µM stood at 20%. With `CC(C)C[C@H](NP(=O)(O)O[C@@H]1O[C@@H](C)[C@H](O)[C@@H](O)[C@H]1O)C(=O)N[C@@H](Cc1c[nH]c2ccccc12)C(=O)O` [Phosphoramidone], the inhibition at 100 µM was found to be 70%.

Staying with this assay, now noted: Concentration 1000 μM.
`O=S(=O)(F)Cc1ccccc1` [PMSF, phenylmethanesulfonyl fluoride]: the “Inhibiting Ratio (%)” value is listed as 32%.

The assay is the same for the next values; noted with them: Concentration 1000 μM; read-out: Inhibiting Ratio (%).
With `O[C@H](CS)[C@H](O)CS` (racemic) [Dithiothreitol], the inhibition at 1000 µM was found to be 96%. Same read-out and setting: with `c1cnc2c(c1)ccc1cccnc12` [o-Phenanthroline] the figure was 92%.

The assay is the same for the next values; noted with them: read-out: Inhibiting Ratio (%).
Regarding `O=C(O)CN(CCN(CC(=O)O)CC(=O)O)CC(=O)O` [Ethylenediaminetetraacetic acid], the inhibition at 1000 µM stood at 70%.

The values above are taken from patent USRE35886E, “Phosphonic acid derivatives and use thereof” (Takeda Chemical Industries, Ltd., priority 1991, dated 1998).
